Data taken from patent US7534809B2, “Phospho-indoles as HIV inhibitors” (priority 2004, dated 2009).

Experiments:
[1] = target: HIV reverse transcriptase K103N/Y181C (Human immunodeficiency virus type 1 group M subtype B, UniProt P03366, K702N/Y780C); assay: Enzyme assay, reverse transcriptase K103N/Y181C; assay type: biochemical, HIV-1
Text: (§1) As used herein, “reverse transcriptase” or “RT” refers to an enzyme having a non-nucleoside inhibitory binding site similar to that of HIV-1 RT, and to which ligands, which bind the composite binding pocket of the compounds of the present invention, also will bind. One measure of RT activity is viral replication. A measure of HIV-1 viral replication is the automated assay that utilizes MTT, as described earlier in this specification. Another measure is the p24 core antigen enzyme immunoassay, such as, for example, the assay commercially available from Coulter Corporation/Immunotech, Inc.® (Westbrook, Mich.). Another means for measuring RT activity is by assaying recombinant HIV-1 reverse transcriptase activity, such as, for example, by using the Quan-T-RT™ assay system commercially available from Amersham® (Arlington Heights, Ill.) and as described by Bosworth et al., Nature, 1989, 341:167-168.
(§2) The 3-phosphoindoles can be assessed for their ability to inhibit reverse transcriptase activity in vitro according to standard screening methods.

[2] = target: HIV reverse transcriptase Y181C (Human immunodeficiency virus type 1 group M subtype B, UniProt P03366, Y780C); assay: Enzyme assay, reverse transcriptase Y181C; assay type: biochemical, HIV-1
Text: as §1, §2

[3] = target: HIV reverse transcriptase WT (Human immunodeficiency virus type 1 group M subtype B, UniProt P03366); assay: Enzyme assay, reverse transcriptase WT; assay type: biochemical, HIV-1
Text: as §1, §2

HIV BH-10 WT = assay: Cell-based assay using BH-10 cells, wild type; settings: Human immunodeficiency virus 1, read-out: EC50 WT///B, BH-10 cells, wild type
[4] = test system: HIV mutant strain K103N/Y181C; assay: Cell-based assay using BH-10 cells, K103N/Y181C mutant; settings: Human immunodeficiency virus 1, read-out: EC50 K103N/Y181C, BH-10 cells, K103N/Y181C mutant
Description: (§3) In a typical embodiment, the NNRTIs display an EC50 in a mutant HIV strain of less than approximately 5, 2.5, 1 or 0.1 μM concentration. The degree of cross-resistance against a drug resistant strain of HIV is measured by assessing the EC50 of the desired oxo-pyrimidine compound in the target mutated, i.e., drug resistant, virus.
(§4) The degree of cross-resistance against a drug resistant strain of HIV can easily be measured by assessing the EC50 of the desired indole in the target mutated i.e., drug resistant, virus.

[5] = target: HIV reverse transcriptase K103N (Human immunodeficiency virus type 1 group M subtype B, UniProt P03366, K702N); assay: Enzyme assay, reverse transcriptase K103N; assay type: biochemical, HIV-1
Text: as §1, §2

HIV mutant strain Y181C = assay: Cell-based assay using BH-10 cells, Y181C mutant; settings: Human immunodeficiency virus 1, read-out: EC50 Y181C, BH-10 cells, Y181C mutant
Description: as §3, §4

CP(=O)(c1ccccc1)c1c(C(N)=O)[nH]c2ccc(Cl)cc12 (stereo not shown) [Compound 29a]
IC50 [1]: > 5000 nM
IC50 [2]: 2520 nM
IC50 [3]: 233 nM
EC50 (HIV BH-10 WT): 0.8 nM
EC50 [4]: 1380 nM
IC50 [5]: > 5000 nM
EC50 (HIV mutant strain Y181C): 266 nM

COP(=O)(c1ccccc1)c1c(C(N)=O)[nH]c2ccc(Cl)cc12 (stereo not shown) [Compound 7ah]
IC50 [1]: 6750 nM
IC50 [2]: 349 nM
IC50 [3]: 309 nM
EC50 (HIV BH-10 WT): 0.4 nM
EC50 [4]: 3.4 nM
IC50 [5]: 389 nM
EC50 (HIV mutant strain Y181C): 4.9 nM

CCOP(=O)(c1cc(F)cc(F)c1)c1c(C(N)=O)[nH]c2ccc(Cl)cc12 (stereo not shown) [Compound 6ac]
IC50 [1]: > 5000 nM
IC50 [2]: 3500 nM
IC50 [3]: 726 nM
EC50 (HIV BH-10 WT): 3.7 nM
EC50 [4]: > 1250 nM
IC50 [5]: 12700 nM
EC50 (HIV mutant strain Y181C): 986 nM

COP(=O)(c1ccccc1)c1c(C(N)=O)[nH]c2ccccc12 (stereo not shown) [Compound 7ai]
IC50 [1]: > 5000 nM
IC50 [2]: 5610 nM
IC50 [3]: 393 nM
EC50 (HIV BH-10 WT): 1 nM
EC50 [4]: 706 nM
IC50 [5]: 6590 nM
EC50 (HIV mutant strain Y181C): 1110 nM

NC(=O)c1[nH]c2ccc(Cl)cc2c1P(=O)(O)c1ccccc1 [Compound 60a]
IC50 [1]: > 5000 nM
IC50 [2]: > 5000 nM
IC50 [3]: > 5000 nM
EC50 (HIV BH-10 WT): > 1250 nM
EC50 [4]: > 1250 nM
IC50 [5]: > 5000 nM
EC50 (HIV mutant strain Y181C): > 1250 nM

NC(=O)c1[nH]c2ccc(Cl)cc2c1P(=O)(c1ccccc1)c1ccccc1 [Compound 27a]
IC50 [1]: > 5000 nM
IC50 [2]: > 5000 nM
IC50 [3]: > 5000 nM
EC50 (HIV BH-10 WT): > 1250 nM
EC50 [4]: > 1250 nM
IC50 [5]: > 5000 nM
EC50 (HIV mutant strain Y181C): > 1250 nM

CCOP(=O)(c1cc(C)cc(C)c1)c1c(C(N)=O)[nH]c2ccc(Cl)cc12 (stereo not shown) [Compound 6b]
IC50 [1]: > 5000 nM
IC50 [2]: 4310 nM
IC50 [3]: 1640 nM
EC50 (HIV BH-10 WT): 3 nM
EC50 [4]: 51.7 nM
IC50 [5]: 2610 nM
EC50 (HIV mutant strain Y181C): 28 nM

CN(C)P(=O)(c1ccccc1)c1c(C(N)=O)[nH]c2ccc(Cl)cc12 (stereo not shown) [Compound 31a]
IC50 [1]: > 5000 nM
IC50 [2]: > 5000 nM
IC50 [3]: 1400 nM
EC50 (HIV BH-10 WT): 13.9 nM
EC50 [4]: > 1250 nM
IC50 [5]: > 5000 nM
EC50 (HIV mutant strain Y181C): 467 nM

CCOP(=O)(c1cc(C)cc(C)c1)c1c(C(=O)NCc2ccncc2)[nH]c2ccc(Cl)cc12 (stereo not shown) [Compound 9a]
IC50 [1]: > 5000 nM
IC50 [2]: 4490 nM
IC50 [3]: 3410 nM
EC50 (HIV BH-10 WT): 11 nM
EC50 [4]: 8 nM
IC50 [5]: 3360 nM
EC50 (HIV mutant strain Y181C): 57.7 nM

CCOP(=O)(c1ccccc1)c1c(C(N)=O)[nH]c2ccc(Cl)cc12 (stereo not shown) [Compound 6a]
IC50 [1]: > 5000 nM
IC50 [2]: 1970 nM
IC50 [3]: 722 nM
EC50 (HIV BH-10 WT): 1.2 nM
EC50 [4]: 16.4 nM
IC50 [5]: 1630 nM
EC50 (HIV mutant strain Y181C): 13.7 nM

CCOP(=O)(c1ccccc1F)c1c(C(N)=O)[nH]c2ccc(Cl)cc12 (stereo not shown) [Compound 6ad]
IC50 [1]: > 5000 nM
IC50 [2]: 4350 nM
IC50 [3]: 433 nM
EC50 (HIV BH-10 WT): 0.9 nM
EC50 [4]: 17 nM
IC50 [5]: 3290 nM
EC50 (HIV mutant strain Y181C): 58.3 nM

CCOP(=O)(c1ccc(F)cc1)c1c(C(N)=O)[nH]c2ccc(Cl)cc12 (stereo not shown) [Compound 6c]
IC50 [1]: > 5000 nM
IC50 [2]: > 5000 nM
IC50 [3]: 3620 nM
EC50 (HIV BH-10 WT): 34.5 nM
EC50 [4]: > 1250 nM
IC50 [5]: > 5000 nM
EC50 (HIV mutant strain Y181C): > 1250 nM

CCOP(=O)(c1cccc(C)c1)c1c(C(N)=O)[nH]c2ccc(Cl)cc12 (stereo not shown) [Compound 6ab]
EC50 (HIV BH-10 WT): 0.5 nM
EC50 [4]: 19.6 nM
EC50 (HIV mutant strain Y181C): 34.8 nM

COP(=O)(c1ccccc1)c1c(C(=O)NCc2ccncc2)[nH]c2ccc(Cl)cc12 (stereo not shown) [Compound 18ar]
IC50 [1]: 1660 nM
IC50 [2]: 489 nM
IC50 [3]: 156 nM
EC50 (HIV BH-10 WT): 1 nM
EC50 [4]: 3.9 nM
IC50 [5]: 930 nM
EC50 (HIV mutant strain Y181C): 5.6 nM

COP(=O)(c1cc(F)cc(Br)c1)c1c(C(N)=O)[nH]c2ccc(Cl)cc12 (stereo not shown) [Compound 7j]
EC50 (HIV BH-10 WT): 1.8 nM
EC50 [4]: 4.1 nM
EC50 (HIV mutant strain Y181C): 3 nM

COP(=O)(c1cc(C)cc(C)c1)c1c(C(=O)NCCc2ccncc2)[nH]c2ccc(Cl)cc12 (stereo not shown) [Compound 18g]
EC50 (HIV BH-10 WT): 11.6 nM
EC50 [4]: 9.8 nM
EC50 (HIV mutant strain Y181C): 30.6 nM

COP(=O)(c1cc(C)cc(C)c1)c1c(C(=O)NCc2ccccn2)[nH]c2ccc(Cl)cc12 (stereo not shown) [Compound 18aam]
EC50 (HIV BH-10 WT): 17.3 nM
EC50 [4]: 22.5 nM
EC50 (HIV mutant strain Y181C): 6.8 nM

COP(=O)(c1cccc(CO)c1)c1c(C(N)=O)[nH]c2ccc(Cl)cc12 (stereo not shown) [Compound 7aq]
EC50 (HIV BH-10 WT): 2.5 nM
EC50 [4]: 126 nM
EC50 (HIV mutant strain Y181C): 83.1 nM

COP(=O)(c1cccc(C(F)(F)F)c1)c1c(C(N)=O)[nH]c2ccc(Cl)cc12 (stereo not shown) [Compound 7e]
EC50 (HIV BH-10 WT): 0.9 nM
EC50 [4]: 1.2 nM
EC50 (HIV mutant strain Y181C): 3.2 nM

CCOP(=O)(c1ccccc1CC)c1c(C(N)=O)[nH]c2ccc(Cl)cc12 (stereo not shown) [Compound 6ah]
EC50 (HIV BH-10 WT): 16.2 nM
EC50 [4]: 307 nM
EC50 (HIV mutant strain Y181C): 211 nM
